Laboratory results reported in patent US6489469B1, “Method for storing or transporting erythritol solution” (Nikken Chemicals Co., Ltd., priority 1999, dated 2002).

Tested on: Bacillus stearothermophilus IFO 12550
Assay: Viable Count of Bacillus stearothermophilus IFO 12550 in Erythritol Solution (heat resistant bacteria)
Format: cell-based
Description: Erythritol solutions of respective concentrations in the range of from 30 to 70% were prepared. To these was inoculated Bacillus stearothermophilus IFO 12550 as a heat resistant bacterium in a population (concentration) of 10,000 cells/mL or more.
After the inoculation, the solutions were stored at 50, 60 or 75° C., respectively, for 56 days and the number of viable cell was determined daily. The determination of the number of viable cell was performed by in the same manner as in Example 1.

Q: Which “The Number of Viable Cell” value (50° C., 50% w/w, Day 0) does the source give for OC[C@@H](O)[C@@H](O)CO [Erythritol Solution, erythritol] here?
A: The value was 10000 or more cells/mL.

Q: And the “The Number of Viable Cell” value (50° C., 50% w/w, Day 3)?
A: Its value is 100 cells/mL.

Q: What about the “The Number of Viable Cell” value (50° C., 50% w/w, Day 7) of the same compound?
A: Its value is 100 cells/mL.

Q: What about the “The Number of Viable Cell” value (50° C., 50% w/w, Day 14) of the same compound?
A: The value was 50 cells/mL.

Q: And the “The Number of Viable Cell” value (50° C., 50% w/w, Day 28)?
A: Its value is 70 cells/mL.

Q: And the “The Number of Viable Cell” value (50° C., 50% w/w, Day 56)?
A: Its value is 120 cells/mL.

Q: And the “The Number of Viable Cell” value (60° C., 30% w/w, Day 0)?
A: Its value is 10000 or more cells/mL.

Q: What about the “The Number of Viable Cell” value (60° C., 30% w/w, Day 3) of the same compound?
A: Its value is 90 cells/mL.

Q: And the “The Number of Viable Cell” value (60° C., 30% w/w, Day 7)?
A: Its value is 60 cells/mL.

Q: And the “The Number of Viable Cell” value (60° C., 30% w/w, Day 14)?
A: Its value is 90 cells/mL.

Q: And the “The Number of Viable Cell” value (60° C., 30% w/w, Day 28)?
A: The value was 300 cells/mL.

Q: What about the “The Number of Viable Cell” value (60° C., 30% w/w, Day 56) of the same compound?
A: The value was 0 cells/mL.

Q: What about the “The Number of Viable Cell” value (60° C., 40% w/w, Day 0) of the same compound?
A: The value was 10000 or more cells/mL.

Q: And the “The Number of Viable Cell” value (60° C., 40% w/w, Day 3)?
A: The value was 60 cells/mL.

Q: And the “The Number of Viable Cell” value (60° C., 40% w/w, Day 7)?
A: Its value is 70 cells/mL.

Q: What about the “The Number of Viable Cell” value (60° C., 40% w/w, Day 14) of the same compound?
A: The value was 200 cells/mL.

Q: What about the “The Number of Viable Cell” value (60° C., 40% w/w, Day 28) of the same compound?
A: The value was 320 cells/mL.

Q: What about the “The Number of Viable Cell” value (60° C., 40% w/w, Day 56) of the same compound?
A: Its value is 0 cells/mL.

Q: What about the “The Number of Viable Cell” value (60° C., 50% w/w, Day 0) of the same compound?
A: The value was 10000 or more cells/mL.

Q: What about the “The Number of Viable Cell” value (60° C., 50% w/w, Day 3) of the same compound?
A: Its value is 100 cells/mL.

Q: What about the “The Number of Viable Cell” value (60° C., 50% w/w, Day 7) of the same compound?
A: Its value is 150 cells/mL.

Q: And the “The Number of Viable Cell” value (60° C., 50% w/w, Day 14)?
A: Its value is 200 cells/mL.

Q: And the “The Number of Viable Cell” value (60° C., 50% w/w, Day 28)?
A: The value was 330 cells/mL.

Q: What about the “The Number of Viable Cell” value (60° C., 50% w/w, Day 56) of the same compound?
A: The value was 0 cells/mL.

Q: And the “The Number of Viable Cell” value (60° C., 60% w/w, Day 0)?
A: The value was 10000 or more cells/mL.

Q: What about the “The Number of Viable Cell” value (60° C., 60% w/w, Day 3) of the same compound?
A: Its value is 130 cells/mL.

Q: And the “The Number of Viable Cell” value (60° C., 60% w/w, Day 7)?
A: Its value is 100 cells/mL.

Q: And the “The Number of Viable Cell” value (60° C., 60% w/w, Day 14)?
A: Its value is 150 cells/mL.

Q: And the “The Number of Viable Cell” value (60° C., 60% w/w, Day 28)?
A: The value was 120 cells/mL.

Q: What about the “The Number of Viable Cell” value (60° C., 60% w/w, Day 56) of the same compound?
A: The value was 0 cells/mL.

Q: What about the “time after which all the cells died” value (75° C.) of the same compound?
A: Its value is 14 days.

Q: What about the “The Number of Viable Cell” value (75° C., 30% w/w, Day 0) of the same compound?
A: The value was 10000 or more cells/mL.

Q: And the “The Number of Viable Cell” value (75° C., 30% w/w, Day 3)?
A: The value was 350 cells/mL.

Q: And the “The Number of Viable Cell” value (75° C., 30% w/w, Day 7)?
A: The value was 340 cells/mL.

Q: And the “The Number of Viable Cell” value (75° C., 30% w/w, Day 14)?
A: Its value is 0 cells/mL.

Q: What about the “The Number of Viable Cell” value (75° C., 30% w/w, Day 28) of the same compound?
A: Its value is 0 cells/mL.

Q: What about the “The Number of Viable Cell” value (75° C., 30% w/w, Day 56) of the same compound?
A: Its value is 0 cells/mL.

Q: And the “The Number of Viable Cell” value (75° C., 40% w/w, Day 0)?
A: Its value is 10000 or more cells/mL.

Q: What about the “The Number of Viable Cell” value (75° C., 40% w/w, Day 3) of the same compound?
A: Its value is 330 cells/mL.

Q: What about the “The Number of Viable Cell” value (75° C., 40% w/w, Day 7) of the same compound?
A: The value was 490 cells/mL.

Q: What about the “The Number of Viable Cell” value (75° C., 40% w/w, Day 14) of the same compound?
A: Its value is 0 cells/mL.

Q: And the “The Number of Viable Cell” value (75° C., 40% w/w, Day 28)?
A: Its value is 0 cells/mL.

Q: What about the “The Number of Viable Cell” value (75° C., 40% w/w, Day 56) of the same compound?
A: Its value is 0 cells/mL.

Q: What about the “The Number of Viable Cell” value (75° C., 50% w/w, Day 0) of the same compound?
A: The value was 10000 or more cells/mL.

Q: What about the “The Number of Viable Cell” value (75° C., 50% w/w, Day 3) of the same compound?
A: Its value is 220 cells/mL.

Q: What about the “The Number of Viable Cell” value (75° C., 50% w/w, Day 7) of the same compound?
A: Its value is 590 cells/mL.

Q: What about the “The Number of Viable Cell” value (75° C., 50% w/w, Day 14) of the same compound?
A: The value was 0 cells/mL.

Q: And the “The Number of Viable Cell” value (75° C., 50% w/w, Day 28)?
A: Its value is 0 cells/mL.

Q: And the “The Number of Viable Cell” value (75° C., 50% w/w, Day 56)?
A: Its value is 0 cells/mL.

Q: What about the “The Number of Viable Cell” value (75° C., 60% w/w, Day 0) of the same compound?
A: Its value is 10000 or more cells/mL.

Q: And the “The Number of Viable Cell” value (75° C., 60% w/w, Day 3)?
A: Its value is 170 cells/mL.

Q: And the “The Number of Viable Cell” value (75° C., 60% w/w, Day 7)?
A: The value was 480 cells/mL.

Q: And the “The Number of Viable Cell” value (75° C., 60% w/w, Day 14)?
A: The value was 0 cells/mL.

Q: What about the “The Number of Viable Cell” value (75° C., 60% w/w, Day 28) of the same compound?
A: Its value is 0 cells/mL.

Q: And the “The Number of Viable Cell” value (75° C., 60% w/w, Day 56)?
A: The value was 0 cells/mL.

Q: What about the “The Number of Viable Cell” value (75° C., 70% w/w, Day 0) of the same compound?
A: The value was 10000 or more cells/mL.

Q: What about the “The Number of Viable Cell” value (75° C., 70% w/w, Day 3) of the same compound?
A: Its value is 140 cells/mL.

Q: And the “The Number of Viable Cell” value (75° C., 70% w/w, Day 7)?
A: Its value is 210 cells/mL.

Q: What about the “The Number of Viable Cell” value (75° C., 70% w/w, Day 14) of the same compound?
A: Its value is 0 cells/mL.

Q: And the “The Number of Viable Cell” value (75° C., 70% w/w, Day 28)?
A: Its value is 0 cells/mL.

Q: And the “The Number of Viable Cell” value (75° C., 70% w/w, Day 56)?
A: The value was 0 cells/mL.

Q: What about the “growth of the bacteria” value (all the concentrations, temperature of 50° C. or more) of the same compound?
A: Its value is “inhibited”.
